In brackets after ≈: the same amount, converted by molar mass.
How the values were obtained:
[1] = test system: B. bronchiseptica ATCC 4617; assay: Antibacterial activity: MIC/MBC, disc-diffusion; format: cell-based, Bordetella bronchiseptica; conditions: B. bronchiseptica ATCC 4617; for MIC: read-out: MIC; for diameter of inhibition zone: (-) = zone not observed, paper discs 9 mm
Description: Direct antimicrobial activity was determined against the following standard strains: (1) Gram-positive cocci: methicillin-sensitive Staphylococcus aureus ATCC 6538P (MSSA), methicillin-resistant S. aureus subsp. aureus ATCC 43300 (MRSA), S. epidermidis ATCC 12228, Enterococcus faecium ATCC 6057, E. faecalis ATCC 29212, Bacillus subtilis ATCC 6633; (2) Gram-negative bacteria from Enterobacteriales order: Klebsiella pneumoniae ATCC 13883, Escherichia coli ATCC 25922, Enterobacter cloacae DSM 6234, Proteus mirabilis ATCC 12453, Serratia marcescens ATCC 13880; (3) Gram-negative non-fermentative rods: Acinetobacter baumannii ATCC 19606, Pseudomonas aeruginosa ATCC 27853, Stenotrophomonas maltophilia ATCC 12714, S. maltophilia ATCC 13637, Burkholderia cepacia ATCC 25416, Bordetella bronchiseptica ATCC 4617; (4) yeasts: Candida albicans ATCC 90028, C. krusei ATCC 6258, C. parapsilosis ATCC 22019, C. tropicalis (Castellani) Berkhout ATCC 750, C. tropicalis IBA 171, C. guilliermondii IBA 155, and Saccharomyces cerevisiae ATCC 9763. Moreover, 5 clinical strains of methicillin-resistant S. aureus were also included: NMI 664 K, NMI 1576 K, NMI 1712 K, NMI 1991 K, and NMI 2541 K. All strains were stored at −80 °C. Prior to testing, each bacterial strain was subcultured twice on tryptic soy agar TSA (bioMerieux) medium and yeast strains on Sabouraud dextrose agar (bioMerieux) for 24–48 h at 30 °C to ensure viability. The antimicrobial activity was evaluated as previously described[26] by the disc-diffusion method and the MIC determination assays according to the EUCAST (ref. [71] and [72]) and CLSI (ref. [53] and [73]) recommendations. Assessment of bactericidal (MBC) and fungicidal (MFC) activities was performed according to the CLSI recommendations.[54,74] […] The new benzosiloxaboroles were dissolved in DMSO (Sigma).
Considering that the MDR efflux pumps often contribute to Gram-negative rod resistance, the MIC values of studied agents, with or without the pump inhibitor, PAβN (20 μg mL^−1) (Sigma), were determined.[75] The MIC was determined using Mueller–Hinton II broth medium (MHB) (Becton Dickinson) by the broth microdilution method, according to the CLSI guideliness.[53] To minimize the influence of PAβN on the destabilization of bacterial cell covers, the tests were conducted in the presence of 1 mM MgSO4 (Sigma).[76] At least a 4-fold reduction in the MIC value after the addition of PAβN was considered significant.[56,77]

[2] = test system: C. parapsilosis ATCC 22019; assay: Antifungal activity: MIC/MFC, disc-diffusion; format: cell-based; conditions: for MIC: Lodderomyces parapsilosis, ATCC22019, read-out: MIC; for diameter of inhibition zone: C. parapsilosis ATCC 22019, (-) = zone not observed, paper discs 9 mm
Method in brief: (§1)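 Reference agents: fluconazole for yeasts, linezolid for Gram-positive bacteria. Testing used disc diffusion and MIC determination under EUCAST and CLSI recommendations, with MBC/MFC per CLSI. Inocula came from two subcultures at 30 °C for 24–48 h.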

[3] = test system: C. tropicalis IBA 171; assay: Antifungal activity: MIC/MFC, disc-diffusion; format: cell-based; conditions: for MIC: Candida tropicalis, IBA171, read-out: MIC; for diameter of inhibition zone: C. tropicalis IBA 171, (-) = zone not observed, paper discs 9 mm
Method in brief: as §1

[4] = test system: Human normal lung fibroblasts MRC-5; assay: MTT-based viability (cytotoxicity) assay; conditions: for IC50: Homo sapiens, MRC5, 48 h
Description: To evaluate the cytotoxic effect of the tested compounds, an MTT-based assay was performed. […] Moreover, based on available IC50 and MIC (for standard and clinical S. aureus MRSA strains) values, the selectivity index (SI) was calculated for several compounds as the IC50/MIC ratio (Table 5).[60]
MRC-5 pd30 human fibroblasts (ECACC) were cultured in MEME, Minimum Essential Medium Eagle (Merck), supplemented with 10% fetal bovine serum (Merck), 2 mM L-glutamine, antibiotics (100 U mL^−1 penicillin, 100 μg mL^−1 streptomycin, Merck) and 1% non-essential amino acids (Merck). Cells were grown in 75 cm^2 cell culture flasks (Sarstedt), in a humidified atmosphere of CO2/air (5/95%) at 37 °C. MTT-based viability assay was conducted as described previously.[26] Optical densities were measured at 570 nm using a BioTek microplate reader. All measurements were carried out in three replicates and the results expressed as a percent of viable cells versus control cells. […] The selectivity index (SI) was calculated as [drawing 30] , in accordance with previously described protocols.[60]

[5] = Bordetella bronchiseptica, ATCC4617

CC(=O)CCSc1c(F)cc2c(c1F)[Si](C)(C)OB2O [Compound 3, 4-((5,7-Difluoro-3-hydroxy-1,1-dimethyl-1,3-dihydrobenzo[c][1,2,5]oxasilaborol-6-yl)thio)butan-2-one]
MIC [1, 5]: 50 µg/mL (≈ 158 µM)
MIC [2]: 100 µg/mL (≈ 316 µM)
MIC [3]: 400 µg/mL (≈ 1260 µM)

C[Si]1(C)OB(O)c2cc(F)c(SCCC(=O)ON3C(=O)CCC3=O)c(F)c21 [Compound 5, 2,5-Dioxopyrrolidin-1-yl 3-((5,7-difluoro-3-hydroxy-1,1-dimethyl-1,3-dihydrobenzo-[c][1,2,5]oxasilaborol-6-yl)thio)propanoate]
MIC [1, 5]: > 400 µg/mL
MIC [2]: > 400 µg/mL
MIC [3]: > 400 µg/mL

C[Si]1(C)OB(O)c2cc(F)c(SCCC(N)=O)c(F)c21 [Compound 7, 3-((5,7-Difluoro-3-hydroxy-1,1-dimethyl-1,3-dihydrobenzo[c][1,2,5]oxasilaborol-6-yl)thio)propanamide]
MIC [1, 5]: > 400 µg/mL
MIC [2]: > 400 µg/mL
MIC [3]: > 400 µg/mL

C[Si]1(C)OB(O)c2cc(F)c(SCCC(=O)N3CCOCC3)c(F)c21 [Compound 8, 3-((5,7-Difluoro-3-hydroxy-1,1-dimethyl-1,3-dihydrobenzo[c][1,2,5]oxasilaborol-6-yl)thio)-1-morpholinopropan-1-one]
MIC [1, 5]: > 400 µg/mL
MIC [2]: > 400 µg/mL
MIC [3]: > 400 µg/mL

C[Si]1(C)OB(O)c2cc(F)c(SCCC(=O)Nc3ncccn3)c(F)c21 [Compound 9, 3-((5,7-Difluoro-3-hydroxy-1,1-dimethyl-1,3-dihydrobenzo[c][1,2,5]oxasilaborol-6-yl)thio)-N-(pyrimidin-2-yl)propanamide]
MIC [1, 5]: > 400 µg/mL
MIC [2]: > 400 µg/mL
MIC [3]: > 400 µg/mL

C[Si]1(C)OB(O)c2cc(F)c(SCCC(=O)Nc3cnccn3)c(F)c21 [Compound 10, 3-((5,7-Difluoro-3-hydroxy-1,1-dimethyl-1,3-dihydrobenzo[c][1,2,5]oxasilaborol-6-yl)thio)-N-(pyrazin-2-yl)propanamide]
MIC [1, 5]: > 400 µg/mL
MIC [2]: > 400 µg/mL
MIC [3]: > 400 µg/mL

Cc1cc(NC(=O)CCSc2c(F)cc3c(c2F)[Si](C)(C)OB3O)no1 [Compound 11, 3-((5,7-Difluoro-3-hydroxy-1,1-dimethyl-1,3-dihydrobenzo[c][1,2,5]oxasilaborol-6-yl)thio)-N-(5-methylisoxazol-3-yl)propanamide]
MIC [1, 5]: > 400 µg/mL
MIC [2]: > 400 µg/mL
MIC [3]: > 400 µg/mL

C[Si]1(C)OB(O)c2ccc(SC3CC(=O)NC3=O)c(F)c21 (centres unmarked) [Compound 13, 3-((7-Fluoro-3-hydroxy-1,1-dimethyl-1,3-dihydrobenzo[c][1,2,5]oxasilaborol-6-yl)thio)pyrrolidine-2,5-dione]
diameter of inhibition zone [1]: 26 mm
MBC [1, 5]: 25 µg/mL (≈ 76.9 µM)
MIC [1, 5]: 12.5 µg/mL (≈ 38.4 µM)
MIC [2]: > 400 µg/mL
MIC [3]: > 400 µg/mL

C[Si]1(C)OB(O)c2cc(F)c(SC3CC(=O)N(c4ccc(F)cc4)C3=O)c(F)c21 (centres unmarked) [Compound 14, 3-((5,7-Difluoro-3-hydroxy-1,1-dimethyl-1,3-dihydrobenzo[c][1,2,5]oxasilaborol-6-yl)thio)-1-(4-fluorophenyl)pyrrolidine-2,5-dione]
diameter of inhibition zone [1]: 11 mm
MIC [1, 5]: 200 µg/mL (≈ 457 µM)
diameter of inhibition zone [2]: 27 mm
MIC [2]: 100 µg/mL (≈ 229 µM)
diameter of inhibition zone [3]: 19 mm
MIC [3]: 200 µg/mL (≈ 457 µM)
viability of MRC-5 ([4]; 6.25 µg·mL−1, 48 h): 90.4±7.6 % of control ± SD
viability of MRC-5 ([4]; 12.5 µg·mL−1, 48 h): 88.8±5.4 % of control ± SD
viability of MRC-5 ([4]; 25 µg·mL−1, 48 h): 87.5±3.5 % of control ± SD
viability of MRC-5 ([4]; 50 µg·mL−1, 48 h): 80.3±7.5 % of control ± SD
viability of MRC-5 ([4]; 100 µg·mL−1, 48 h): 52.0±2.8 % of control ± SD
viability of MRC-5 ([4]; 200 µg·mL−1, 48 h): 27.3±3.2 % of control ± SD
viability of MRC-5 ([4]; 400 µg·mL−1, 48 h): 0.1±0.1 % of control ± SD
IC50 [4]: 133 µg/mL (≈ 305 µM)

C[Si]1(C)OB(O)c2ccc(SC3CC(=O)N(c4ccc(F)cc4)C3=O)c(F)c21 (centres unmarked) [Compound 15, 3-((7-Fluoro-3-hydroxy-1,1-dimethyl-1,3-dihydrobenzo[c][1,2,5]oxasilaborol-6-yl)thio)-1-(4-fluorophenyl)pyrrolidine-2,5-dione]
MIC [1, 5]: > 200 µg/mL
diameter of inhibition zone [2]: 23 mm
MIC [2]: 200 µg/mL (≈ 477 µM)
diameter of inhibition zone [3]: 15 mm
MIC [3]: > 200 µg/mL
viability of MRC-5 ([4]; 6.25 µg·mL−1, 48 h): 89.2±0.3 % of control ± SD
viability of MRC-5 ([4]; 12.5 µg·mL−1, 48 h): 77.9±4.3 % of control ± SD
viability of MRC-5 ([4]; 25 µg·mL−1, 48 h): 73.7±0.8 % of control ± SD
viability of MRC-5 ([4]; 50 µg·mL−1, 48 h): 69.9±1.8 % of control ± SD
viability of MRC-5 ([4]; 100 µg·mL−1, 48 h): 65.0±0.1 % of control ± SD
viability of MRC-5 ([4]; 200 µg·mL−1, 48 h): 41.5±0.7 % of control ± SD
viability of MRC-5 ([4]; 400 µg·mL−1, 48 h): 6.7±0.1 % of control ± SD
IC50 [4]: 145 µg/mL (≈ 346 µM)

C[Si]1(C)OB(O)c2cc(F)c(SCCC(=O)OCCCCCC[n+]3ccccc3)c(F)c21 [Compound 18, 1-(6-((3-((5,7-difluoro-3-hydroxy-1,1-dimethyl-1,3-dihydrobenzo[c][1,2,5]oxasilaborol-6-yl)thio)propanoyl)oxy)hexyl)pyridin-1-ium trifluoromethanesulfonate]
MIC [1, 5]: > 400 µg/mL
diameter of inhibition zone [2]: 14 mm
MIC [2]: 400 µg/mL
MIC [3]: 400 µg/mL

C[Si]1(C)OB(O)c2ccc(SCCC(=O)OCCCCCC[n+]3ccccc3)c(F)c21 [Compound 19, 1-(6-((3-((7-Fluoro-3-hydroxy-1,1-dimethyl-1,3-dihydrobenzo[c][1,2,5]oxasilaborol-6-yl)thio)propanoyl)oxy)hexyl)pyridin-1-ium trifluoromethanesulfonate]
MIC [1, 5]: > 400 µg/mL
diameter of inhibition zone [2]: 16 mm
MIC [2]: 400 µg/mL
diameter of inhibition zone [3]: 16 mm
MIC [3]: 400 µg/mL

C[Si]1(C)OB(O)c2ccc(SCCS(=O)(=O)c3ccccc3)c(F)c21 [Compound 21, 7-Fluoro-1,1-dimethyl-6-((2-(phenylsulfonyl)ethyl)thio)benzo[c][1,2,5]oxasilaborol-3(1H)-ol]
MIC [1, 5]: > 400 µg/mL
MIC [2]: 400 µg/mL (≈ 1010 µM)
MIC [3]: 400 µg/mL (≈ 1010 µM)

C[Si]1(C)OB(O)c2cc(F)c(S(=O)(=O)Cl)c(F)c21 [Compound 26, 5,7-Difluoro-3-hydroxy-1,1-dimethyl-1,3-dihydrobenzo[c][1,2,5]oxasilaborole-6-sulfonyl chloride]
MIC [1, 5]: > 400 µg/mL
MIC [2]: > 400 µg/mL
MIC [3]: > 400 µg/mL

C[Si]1(C)OB(O)c2cc(F)c(S(=O)(=O)N3CCOCC3)c(F)c21 [Compound 29, 5,7-Difluoro-1,1-dimethyl-6-(morpholinosulfonyl)benzo[c][1,2,5]oxasilaborol-3(1H)-ol]
MIC [1, 5]: > 400 µg/mL
viability of MRC-5 ([4]; 6.25 µg·mL−1, 48 h): 90.1±3.4 % of control ± SD
viability of MRC-5 ([4]; 12.5 µg·mL−1, 48 h): 90.6±4.5 % of control ± SD
viability of MRC-5 ([4]; 25 µg·mL−1, 48 h): 86.8±4.3 % of control ± SD
viability of MRC-5 ([4]; 50 µg·mL−1, 48 h): 80.8±3.4 % of control ± SD
viability of MRC-5 ([4]; 100 µg·mL−1, 48 h): 74.1±0.5 % of control ± SD
viability of MRC-5 ([4]; 200 µg·mL−1, 48 h): 69.6±2.4 % of control ± SD
viability of MRC-5 ([4]; 400 µg·mL−1, 48 h): 60.4±5.2 % of control ± SD
IC50 [4]: > 400 µg/mL

Reference: PMC11110727, “Exploiting thiol-functionalized benzosiloxaboroles for achieving diverse substitution patterns – synthesis, characterization and biological evaluation of promising antibacterial agents” (RSC Medicinal Chemistry, 2024)
